Laboratory results from patent US20260364030A1, “NOVEL SELECTIVE INHIBITORS OF LYSYL OXIDASES” (Syntara Limited, priority 2022, published 2026).

Key:
[1] = tested on: SiHa cervical cancer cells; details: in vitro, hypoxic/anoxic conditions; cited from earlier work
Bovine LOX = molecular target: T1, Bovine LOX (Bos taurus, UniProt P33072); assay: LOX inhibition, hydrogen peroxide Amplex Red oxidation assay; assay type: biochemical
T1 sequence (P33072 170-418): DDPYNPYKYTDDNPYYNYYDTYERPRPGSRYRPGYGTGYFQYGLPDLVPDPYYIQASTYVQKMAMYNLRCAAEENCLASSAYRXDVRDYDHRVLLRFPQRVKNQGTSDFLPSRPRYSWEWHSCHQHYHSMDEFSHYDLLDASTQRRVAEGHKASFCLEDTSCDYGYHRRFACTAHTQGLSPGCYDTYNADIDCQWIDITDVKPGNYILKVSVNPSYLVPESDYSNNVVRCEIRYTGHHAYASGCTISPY
Procedure: LOX and LOXL protein family members can be acquired as recombinant active proteins from commercial sources, or extracted from animal tissues like bovine aorta, tendons, pig skin; or prepared from cell cultures. The inhibitory effects of the compounds of the present invention were tested against the given LOX or LOXL preparation using a method based on the detection of hydrogen peroxide with an Amplex Red oxidation assay [Zhou et al, 1997]. The assay was developed using either 384 or 96 well format. Briefly, in a standard black, clear bottom 384 well plate assay 25 µL of a dilution of any of the isoenzymes and orthologues in 1.2 M urea, 50 mM sodium borate buffer (pH 8.2) were added into each well in the presence of […] and 0.5 mM pargyline (to inhibit SSAO and MAO-B and MAO-A, respectively; not necessary if the enzyme is from a recombinant or purified form). […] of a reaction mixture containing twice the KM concentration of putrescine (Sigma Aldrich, e.g. 20 mM for LOX and LOXL1 or 10 mM for LOXL2 and 4 mM for LOXL3 and LOXL4), 120 µM Amplex Red (Thermo Fisher Scientific) and 1.5 U/mL horseradish peroxidase (Sigma Aldrich) prepared in 1.2 M urea, 50 mM sodium borate buffer (pH 8.2) were then added to the corresponding wells. The above volumes were doubled in the case of 96 wells plate. The fluorescence (RFU) was read every 2.5 min for 30 min at 37 °C, excitation 544 nm and emission 590 (Optima; BMG labtech). The slope/min of the kinetics for each well was calculated using MARS data analysis software (BMG labtech) and this value was used to deduce the IC50 value (Dotmatics). The ability of the inventive compounds to inhibit the amine oxidase activity of LOX and other family members is shown in Table 5.

[2] = human patients with scleroderma; cited from earlier work
[3] = tested on: massive, pedunculated keloids; details: BAPN or penicillamine, and colchicine; following excision of keloid and grafting; cited from earlier work
[4] = tested on: SSAO/VAP-1, MAO-B, MAO-A and DAO; assay: Selectivity with respect to other amine oxidases; assay type: biochemical, human
Procedure: Human recombinant SSAO/VAP-1 amine oxidase activity was determined using the coupled colorimetric method as described for monoamine oxidase, copper-containing amine oxidases and related enzymes [Holt A. and Palcic M., 2006]. Briefly, a cloned cDNA template corresponding to residues 34-763 of human SSAO/VAP-1, and incorporating a mouse Ig kappa (κ) signal sequence, N-terminal flag epitope tag and tobacco etch virus (TEV) cleavage site, was assembled in a mammalian expression vector (pLO-CMV) by Geneart AG. This vector containing human SSAO/VAP-1 residues was transfected into CHO-K1 glycosylation mutant cell line, Lee 8. A clone stably expressing human SSAO/VAP-1 was isolated and cultured in large scale. Active human SSAO/VAP-1 was purified and recovered using immunoaffinity chromatography. This was used as the source for SSAO/VAP-1 activity. A high-throughput fluorescent assay was developed using either 96 or 384 well format. Briefly, in a standard 384 well plate assay 25 μL of purified human SSAO/VAP-1 (0.25 μg/mL) in 0.1 M sodium phophate buffer (pH 7.4) was added into each well. […] The fluorescence unit (RFU) was read every 2.5 min for 30 min at 37 °C excitation 544 nm and emission 590 (Optima; BMG labtech). The slope/min of the kinetics for each well was calculated using MARS data analysis software (BMG labtech) and this value was used to deduce the IC50 value (Dotmatics). […]

Human MAO-B = molecular target: T2, Human MAO-B (Homo sapiens, UniProt P27338); assay: Inhibition of human recombinant MAO-B; assay type: biochemical; details: substrate benzylamine 100 μM
T2 construct: purchased Sigma Aldrich

[5] = 30 min incubation with enzyme at 37 °C

T2 sequence (P27338 whole entry): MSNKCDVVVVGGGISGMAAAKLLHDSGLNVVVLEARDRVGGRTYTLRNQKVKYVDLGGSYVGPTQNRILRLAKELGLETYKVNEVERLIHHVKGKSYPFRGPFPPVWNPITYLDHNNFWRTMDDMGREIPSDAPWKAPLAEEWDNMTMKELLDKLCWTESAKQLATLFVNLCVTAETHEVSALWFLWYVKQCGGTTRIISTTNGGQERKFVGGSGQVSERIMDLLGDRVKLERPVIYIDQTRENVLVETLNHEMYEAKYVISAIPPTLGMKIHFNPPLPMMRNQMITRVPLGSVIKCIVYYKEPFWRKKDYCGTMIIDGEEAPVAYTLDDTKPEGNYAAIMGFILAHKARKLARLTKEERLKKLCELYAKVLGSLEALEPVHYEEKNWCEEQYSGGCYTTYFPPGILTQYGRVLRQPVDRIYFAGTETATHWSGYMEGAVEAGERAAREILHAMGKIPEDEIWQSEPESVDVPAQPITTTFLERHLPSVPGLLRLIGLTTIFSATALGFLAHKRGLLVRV

Row | IC50 (Bovine LOX; 2 h incubation with enzyme at 37 °C) [µM] | IC50 (Human MAO-B) [µM] | Structure (SMILES) | Invasion of SiHa cells [1] | IC50 (Bovine LOX; [5]) [µM] | Tolerability [2] | Effect on surface scarring [3] | Selectivity for LOX family with respect to SSAO/VAP-1, MAO-B, MAO-A and DAO [4]
1 | – | – | N#CCCN [BAPN, β-aminopropionitrile, reference compound] | repressed | 2.3 | poorly tolerated | measurable beneficial effect on surface scarring | –
2 | < 5 | > 30 | NC/C(=C\F)CS(=O)(=O)c1ccccc1 [Compound 1, (E)-3-fluoro-2-((phenylsulfonyl)methyl)prop-2-en-1-amine] | – | 10 | – | – | selectively inhibit members of the LOX family of enzymes
